What was measured:
[1] = tested on: IFN-β secretion in THP1 cells; assay: IFN-β secretion in THP1 cell culture (5 h); assay type: cell-based; details: Homo sapiens, THP-1, 5 h, 30 μM compound, cGAMP at 30 μM set at 100%, read-out: % Effect at 30 μM relative to 2′3′-cGAMP
Protocol: The ability of compounds to stimulate the secretion of interferon-beta from THP1 cells was measured using a human IFN-β AlphaLISA kit (Perkin Elmer, Cat. No. AL265F). The basic protocol is as follows:
A Labcyte Echo 550 acoustic dispenser was used to transfer 120 nL of compound dissolved in DMSO into the wells of an empty, sterile 384-well microplate, (Corning, Cat. No. 3712). THP1 cells (American Type Culture Collection, Cat. No. TIB202) previously frozen in Recovery Medium (Life Technologies, Cat. No. 12648-010) were thawed and immediately diluted 10-fold into 37° C. assay medium (RPMI 1640+L-Glutamine & phenol red, Life Technologies, Cat. No. 11875-085; 0.5% heat inactivated fetal bovine serum, Sigma Aldrich, Cat. No. F4135; 1 mM Sodium Pyruvate, Life Technologies, Cat. No. 11360-070; lx non-essential amino acids; Life Technologies, Cat. No. 11140-050). The cell viability and count was ascertained using a Beckman Coulter V-Cell XR cell counter. The cells suspension was centrifuged at 200×g for 5 min at RT. Cells were resuspended to a density of 0.8×10^6/mL in 37° C. assay medium. Subsequent liquid transfers were performed using either a Matrix electronic multichannel pipette or an Agilent Bravo Automated Liquid Handling Platform.
The assay was started by dispensing 404, of the previously prepared cell suspension into the wells of the plate containing compounds. After 5 h incubation at 37° C., 5% CO2 in a humidified atmosphere, the plate of cells and compounds was centrifuged at 200×g for 5 min at RT. From each well, 54, of supernatant was transferred into corresponding wells of a white 384-well plate (Perkin Elmer, Cat. No. 6005620). To these supernatant-containing wells was added 10 μL of 5× Anti-Analyte Acceptor beads (50 μg/mL of AlphaLISA HiBlock Buffer) and incubated for 30 min at RT while shaking on an orbital plate shaker. To each well was added 104, of 5× Biotinylated Antibody Anti-analyte (5 nM in AlphaLISA HiBlock Buffer) and incubated on an orbital plate shaker for 60 min at RT or overnight at 4° C. To each well was added 254, of 2× SA-Donor beads (80 μg/mL in AlphaLISA HiBlock Buffer) and incubated for 30-45 min at RT in the dark while shaking on an orbital plate shaker. The plate was then read on a Perkin Elmer Envision (λex=680 nm, λem=[…]). The percent effect of the AlphaLISA signal at each compound concentration was calculated based on 30 uM cGAMP positive controls and 0.3% DMSO negative controls. The plot of percent effect versus the log of compound concentration was fit with a 4-parameter concentration response equation to calculate EC50 values. The test compounds were tested at concentrations 30000, 10000, 3333, 1111, 370.4, 123.4, 41.2, 13.7, 4.6, and 1.5 nM with 0.3% residual DMSO. The control compound, cGAMP was tested at concentrations 100000, 33333, 11111, 3704, 1235, 412, 137, 46, and 15 nM with 0.3% residual DMSO.

[2] = molecular target: T1, full-length HAQ STING (Homo sapiens, UniProt Q86WV6, G230A/H232R/R293Q/R71H); assay: 3H-cGAMP filtration binding assay (HAQ STING); details: for EC50: competition with tritiated cGAMP ligand, HAQ STING membrane
T1 construct: made in house; host or cells: Trichoplusia ni (Hi-Five) insect cells, baculovirus; crude membrane preparation
T1 sequence (Q86WV6 with tags, fused parts or gaps R71H/G230A/H232R/R293Q): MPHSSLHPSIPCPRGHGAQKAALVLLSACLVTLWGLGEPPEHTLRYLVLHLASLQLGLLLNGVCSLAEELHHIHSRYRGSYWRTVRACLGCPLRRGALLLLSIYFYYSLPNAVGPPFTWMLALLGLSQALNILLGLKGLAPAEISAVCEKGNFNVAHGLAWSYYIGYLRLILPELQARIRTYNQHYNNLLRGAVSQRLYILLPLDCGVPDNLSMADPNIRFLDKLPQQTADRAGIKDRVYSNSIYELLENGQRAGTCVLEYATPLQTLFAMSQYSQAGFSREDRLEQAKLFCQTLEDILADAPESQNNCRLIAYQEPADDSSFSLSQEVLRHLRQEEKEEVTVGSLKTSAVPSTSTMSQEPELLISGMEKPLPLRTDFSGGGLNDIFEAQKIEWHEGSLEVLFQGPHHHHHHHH
Description: The ability of compounds to bind STING is quantified by the ability to compete with tritiated cGAMP ligand for human STING receptor membrane using a radioactive filter-binding assay. The binding assay employs STING receptor obtained from Hi-Five cell membranes overexpressing full-length HAQ STING prepared in-house and tritiated cGAMP ligand also purified in-house.
The ability of compounds to bind STING is quantified by their ability to compete with tritiated cGAMP ligand for human STING receptor membrane using a radioactive filter-binding assay. The binding assay employs STING receptor obtained from Trichoplusia ni cell membranes (T. ni; Expression Systems, cat #94-002F, www.expressionsystems.com) overexpressing full-length HAQ STING and tritiated cGAMP ligand.
The basic HAQ STING filtration assay protocol is as follows:
The compounds were serially titrated by the Hamilton STARPlus CORE in a 96-well plate (Greiner, #651201) using a 1:3 ten-point dose response format. After compound preparation, a 2.2 ug/ml working concentration of STING membrane (SEQ. ID. No. 1) was prepared by diluting concentrated membrane into assay buffer (lx PBS; Invitrogen #SH30028.02) and douncing 7× using a manual tissue homogenizer (Wheaton, #357546). 148 uL of prepared membrane was then manually added to each well of a 96-well deep-well polypropylene plate (Fisher Scientific, #12-566-121). Following membrane addition, 2 uL of either titrated test compound, DMSO control (Sigma #276855), or cold cGAMP control was added to the appropriate wells using a BIOMEK FX. Compound and membrane then preincubated for 60 min at RT to allow compound binding to equilibrate. Following equilibration, 8 nM of [^3H] c-GAMP ligand was prepared by diluting into assay buffer, and 50 uL of this working stock was then manually added to each well of the assay plate. Plates were then incubated at RT for 60 min, and the contents of each assay plate were then filtered through a 96-well GF/B filter plate (PerkinElmer, #6005250) using a TOMTEC MACH III Cell Harvester equipped with 20 mM HEPES buffer (Fisher Scientific, #BP299500). The filter plates were then dried at 55° C. for 30 min using a pressurized oven before 30 uL of ULTIMA GOLD F scintillate was added to each well. Tritium levels for each reaction well were then measured using a PerkinElmer TopCount plate reader.
After normalization to controls, the percent activity for each compound concentration was calculated by measuring the amount of remaining radioactivity. The plot of percent activity versus the log of compound concentration was fit with a 4-parameter dose response equation to calculate EC50 values.

EC50 [2] | percent reduction in binding of tritiated cGAMP at top concentration ([2]; at 20,000 nM (20 uM) compound, HAQ STING) | SMILES | activation at 30 µM [1]
3.29 µM |  | COc1cc2nc(C(=O)CC(C)C(=O)O)sc2cc1OC (single isomer, unassigned) [Example 2, 4-(5,6-Dimethoxy-1,3-benzothiazol-2-yl)-2-methyl-4-oxobutanoic Acid] | 94%
8.76 µM |  | COc1cc2sc(C(=O)CC(C)C(=O)O)cc2nc1OC (single isomer, unassigned) [Example 7, (R or S)-4-(5,6-Dimethoxythieno[3,2-b]pyridin-2-yl)-2-methyl-4-oxobutanoic acid] | 55%
1.54 µM |  | COc1cc2sc(C(=O)CC(C)C(=O)O)cc2nc1OC (single isomer, unassigned) [Example 8, (R or S)-4-(5,6-Dimethoxythieno[3,2-b]pyridin-2-yl)-2-methyl-4-oxobutanoic acid] | 
17.3 µM |  | CCC(CC(=O)c1cc2nc(OC)c(OC)cc2s1)C(=O)O (single isomer, unassigned) [Example 11, (R or S)-4-(5,6-Dimethoxythieno[3,2-b]pyridin-2-yl)-2-ethyl-4-oxobutanoic acid] | 
1.75 µM |  | CCC(CC(=O)c1cc2nc(OC)c(OC)cc2s1)C(=O)O (single isomer, unassigned) [Example 12, (R or S)-4-(5,6-Dimethoxythieno[3,2-b]pyridin-2-yl)-2-ethyl-4-oxobutanoic acid] | 
13.3 µM |  | COc1cc2nc(C(=O)CCC(=O)O)sc2cc1OC [Example 1, 4-(5,6-Dimethoxybenzo[d]thiazol-2-yl)-4-oxobutanoic Acid] | 56%
10.6 µM |  | COc1cc2sc(C(=O)C[C@H](C)C(=O)O)nc2cc1Br [Example 3, (S)-4-(5-Bromo-6-methoxybenzo[d]thiazol-2-yl)-2-methyl-4-oxobutanoic Acid] | 11%
6.79 µM |  | COc1cc2sc(C(=O)CC(C)C(=O)O)nc2c(F)c1OC (stereo not drawn) [Example 4, 4-(4-Fluoro-5,6-dimethoxybenzo[d]thiazol-2-yl)-2-methyl-4-oxobutanoic Acid] | 19%
0.637 µM |  | COc1cc2sc(C(=O)C[C@H](C)C(=O)O)cc2nc1Cl [Example 10, (S)-4-(5-Chloro-6-methoxythieno[3,2-b]pyridin-2-yl)-2-methyl-4-oxobutanoic Acid] | 70%
10.1 µM |  | COc1cc2sc(C(=O)C[C@H](C)C(=O)O)nc2nc1OC [Example 19, (S)-4-(5,6-Dimethoxythiazolo[4,5-b]pyridin-2-yl)-2-methyl-4-oxobutanoic Acid] | 14%

Further lines, the compound ahead of its results:

SMILES | EC50 [2] | percent reduction in binding of tritiated cGAMP at top concentration ([2]; at 20,000 nM (20 uM) compound, HAQ STING) | activation at 30 µM [1]
COc1cc2sc(C(=O)[C@H]3C[C@H]3C(=O)O)cc2nc1OC (single isomer, unassigned) [Example 9, Cis-2-(5,6-dimethoxythieno[3,2-b]pyridine-2-carbonyl)cyclopropane-1-carboxylic Acid] | 1.15 µM |  | 100%
CCCC(CC(=O)c1cc2nc(OC)c(OC)cc2s1)C(=O)O (single isomer, unassigned) [Example 13, (R or S)-2-(2-(5,6-Dimethoxythieno[3,2-b]pyridin-2-yl)-2-oxoethyl) pentanoic acid] |  | 7% @ 20,000 | 
CCCC(CC(=O)c1cc2nc(OC)c(OC)cc2s1)C(=O)O (single isomer, unassigned) [Example 14, (R or S)-2-(2-(5,6-Dimethoxythieno[3,2-b]pyridin-2-yl)-2-oxoethyl) pentanoic acid] | 1.39 µM |  | 
CCC(CC(=O)c1cc2nc(OC)c(OC)nc2s1)C(=O)O (single isomer, unassigned) [Example 17, (R or S)-4-(2,3-Dimethoxythieno[2,3-b]pyrazin-6-yl)-2-ethyl-4-oxobutanoic Acid] | 2.71 µM |  | 116%
COc1nc2cc(C(=O)CC(C)C(=O)O)sc2nc1OC (single isomer, unassigned) [Example 18, (R or S)-4-(2,3-Dimethoxythieno[2,3-b]pyrazin-6-yl)-2-methyl-4-oxobutanoic Acid] | 4.5 µM |  | 77%
COc1cc2cc(C(=O)CCC(=O)O)sc2nc1OC [Example 5, 4-(5,6-Dimethoxythieno[2,3-b]pyridin-2-yl)-4-oxobutanoic Acid] | 5.51 µM |  | 146%
COc1cc2sc(C(=O)CCC(=O)O)cc2nc1OC [Example 6] | 2.44 µM |  | 107%
COc1nc2cc(C(=O)CCC(=O)O)sc2cc1Br [Example 15, 4-(6-Bromo-5-methoxythieno[3,2-b]pyridin-2-yl)-4-oxobutanoic Acid] | 2.45 µM |  | 142%
COc1nc2cc(C(=O)CCC(=O)O)sc2nc1OC [Example 16, 4-(2,3-Dimethoxythieno[2,3-b]pyrazin-6-yl)-4-oxobutanoic Acid] | 9.57 µM |  | 108%
